Experimental data reported in patent publication US20030220252A1, “Method for treating a patient with neoplasia by treatment with a gonadotropin releasing hormone analog” (priority 1998, published 2003).
Each block holds one compound with its values, some of them ahead of it.

Experiments:
cGMP-PDE = cGMP-PDE inhibition assay, enzyme purified from HT-29 tumor cells; type: biochemical, human; details: for % Inhibition at 100 μM (cGMP PDE): test compounds
[1] = test system: HT-29 human colon carcinoma cell line; test: Growth inhibition of HT-29 cells (SRB assay; trypan blue count); type: cell-based
COX = COX inhibition; type: biochemical; details: 100 μM
[2] = test system: PDE peak B (novel cGMP-specific PDE); test: cGMP hydrolysis by PDE peak B isolated from SW-480 cells; type: biochemical, human
PDE peak A (PDE5) = biological target: T1, PDE peak A (PDE5) (Homo sapiens, UniProt O76074); test: cGMP hydrolysis by PDE peak A isolated from SW-480 cells; type: biochemical
T1 construct: SW-480 cells are collected and homogenized; endogenous in cells; host or cells: SW-480 human colon adenocarcinoma cells; supernatant of homogenate fractionated on DEAE-Trisacryl M

HT-29 cells = test: Apoptosis and necrosis by morphology (acridine orange/ethidium bromide) in HT-29 cells; type: cell-based, human; details: for apoptotic and necrotic cell death, in words: HT-29 cells treated for six days
Description: Treatment of cells with test compounds involves either pre- or post-confluent cultures and treatment for two to seven days at various concentrations of the compound in question. Apoptotic cells are measured by combining both the attached and “floating” compartments of the cultures. The protocol for treating tumor cell cultures with sulindac and related compounds to obtain a significant amount of apoptosis has been described in the literature. (See, Piazza, G. A., et al., Cancer Research, 55:3110-16, 1995, which is incorporated herein by reference). The novel features include collecting both floating and attached cells, identification of the optimal treatment times and dose range for observing apoptosis, and identification of optimal cell culture conditions.
Following treatment with a test compound, cultures can be assayed for apoptosis and necrosis by fluorescent microscopy following labeling with acridine orange and ethidium bromide. The method for measuring apoptotic cell number has previously been described by Duke & Cohen, “Morphological And Biochemical Assays Of Apoptosis,” Current Protocols In Immunology, Coligan et al., eds., 3.17.1-3.17.16 (1992, which is incorporated herein by reference).
For example, floating and attached cells can be collected, and aliquots of cells can be centrifuged. The cell pellet can then be resuspended in media and a dye mixture containing acridine orange and ethidium bromide. The mixture can then be examined microscopically for morphological features of apoptosis.
Reference compounds and test compounds were analyzed for their cGMP-specific PDE inhibitory activity in accordance with the protocols for the assay, supra. […] Apoptotic and necrotic cell death was determined as previously described (Duke and Cohen, In: Current Protocols in Immunology, 3.17.1-3.17.16, New York, John Wiley and Sons, 1992). […]
The apoptosis inducing activity for a series of phosphodiesterase inhibitors was determined. […] Apoptosis and necrosis were determined morphologically after acridine orange and ethidium bromide labeling in accordance with the assay described, supra.

[3] = test system: premalignant lesions in mouse mammary gland organ culture; test: Mammary gland organ culture model; type: cell-based
Description: For example, female BALB/c mice can be treated with a combination of estradiol and progesterone daily, in order to prime the glands to be responsive to hormones in vitro. The animals are sacrificed and thoracic mammary glands are excised aseptically and incubated for ten days in growth media supplemented with insulin, prolactin, hydrocortisone, and aldosterone. DMBA (7,12-dimethylbenz(a)anthracene) is added to medium to induce the formation of premalignant lesions. Fully developed glands are then deprived of prolactin, hydrocortisone, and aldosterone, resulting in the regression of the glands but not the premalignant lesions.
The test compound is dissolved in DMSO and added to the culture media for the duration of the culture period. At the end of the culture period, the glands are fixed in 10% formalin, stained with alum carmine, and mounted on glass slides. The extent of the area occupied by the mammary lesions can be quantitated by projecting an image of the gland onto a digitation pad. The area covered by the gland is traced on the pad and considered as 100% of the area. The space covered by each of the unregressed structures is also outlined on the digitization pad and quantitated by the computer.
The incidence of forming mammary lesions is the ratio of the glands with mammary lesions to […]. The incidence of mammary lesions in test compound treated glands is compared with that of the untreated glands.
Mammary gland organ culture experiments were performed as previously described (Mehta and Moon, Cancer Research, 46: 5832-5835, 1986). […] The data support the hypothesis that cyclooxygenase inhibition is not necessary for the anti-neoplastic properties of desired compounds.

[4] = Side effects of exisulind on administration; type: in vivo; details: reversible
Excerpt: This effect is reversible, and liver enzymes return to normal levels when the administered dose of exisulind returns to the traditionally recommended level or when treatment is discontinued. The most serious side effects of GnRH analogs, on the other hand, are related to decreases serum levels of estrogen and testosterone.

[5] = test system: cAMP levels in HT-29 cells; test: cAMP levels in HT-29 cells by radioimmunoassay; type: cell-based, human; details: HT-29 cells treated 30 minutes
Excerpt: It has been observed that a compound which is useful in the practice of this invention (i.e., one that selectively induces apoptosis in neoplastic cells, but not substantially in normal cells) follows a time course consistent with cGMP-specific PDE inhibition. […] The intracellular targets of these drug actions are being studied further, but current data support the concept that the initial rise in cGMP content and the subsequent fall in cAMP content precede apoptosis in neoplastic cells exposed to test compounds useful in this invention. To determine the cyclic AMP content in cell extracts, radioimmunoassay techniques similar to those described above for cGMP are used.

[6] = test system: cGMP levels in HT-29 cells; test: cGMP levels in HT-29 cells by radioimmunoassay; type: cell-based, human; details: HT-29 cells treated 30 minutes

Compound: CCN(CC)CCSC12CC(=O)OC1(C)/C(=C/c1ccc(S(C)(=O)=O)cc1)c1ccc(F)cc12 (racemic) [A, rac-threo-(E)-1-(N,N′-diethylaminoethanethio)-1-(butan-1′,4′-olido)-[3′,4′:1,2]-6-fluoro-2-methyl-3-(p-methylsulfonylbenzylidene)-indan]
- % Inhibition at 100 μM (cGMP PDE) (cGMP-PDE): <25%
- Growth inhibitory activity, % Inhibition at 100 μM ([1]; 100 μM single dose): 68%

Compound: CC1=C(CC(=O)O)c2cc(F)ccc2/C1=C\c1ccc(Cl)cc1 [C, (Z)-5-Fluoro-2-methyl-1-(p-chlorobenzylidene)-3-acetic acid]
- % Inhibition at 100 μM (cGMP PDE) (cGMP-PDE): <25%

Compound: COc1cc(C=C2C(C)=C(CC(=O)O)c3cc(F)ccc32)cc(OC)c1OC [Compound B, (Z)-5-Fluoro-2-methyl-1-(3,4,5-trimethoxybenzylidene)-3-acetic acid]
- % Inhibition at 100 μM (cGMP PDE) (cGMP-PDE): <25%
- COX inhibition, in words (COX): did not inhibit COX

Compound: O=C([O-])C1CCN(c2nc(NCc3ccc4c(c3)OCO4)c3cc(Cl)ccc3n2)CC1.[Na+] [Compound E4021]
- inhibition / sensitivity of the new cGMP-PDE (peak B), in words [2]: relatively insensitive

- inhibition of peak A (PDE5), in words (PDE peak A (PDE5)): competitively inhibit
Compound: COc1cc(/C=C2/C(C)=C(CC(=O)NCc3ccccc3)c3cc(F)ccc32)cc(OC)c1OC [Compound E, (Z)-5-Fluoro-2-methyl-1-(3,4,5-trimethoxybenzylidene)-3-indenylacetamide, N-benzyl]
- inhibition / sensitivity of the new cGMP-PDE (peak B), in words [2]: competitively inhibit
- % Inhibition at 100 μM (cGMP PDE) (cGMP-PDE): 75%
- COX inhibition, in words (COX): did not inhibit COX

- inhibition of peak A (PDE5), in words (PDE peak A (PDE5)): inhibits both PDE5 and the new cGMP-PDE
Compound: CC1=C(CC(=O)O)c2cc(F)ccc2/C1=C\c1ccc(S(C)(=O)=O)cc1 [Exisulind, (Z)-5-fluoro-2-methyl-1-[[4-(methylsulfonyl)phenyl]methylene]indene-3-yl acetic acid]
- inhibition / sensitivity of the new cGMP-PDE (peak B), in words [2]: inhibits both PDE5 and the new cGMP-PDE
- % Inhibition at 10 μM (cGMP PDE) (cGMP-PDE): 39%
- apoptotic and necrotic cell death, in words (HT-29 cells): capable of causing apoptotic cell death without inducing necrosis
- inhibition of premalignant lesions in mammary gland organ culture, in words [3]: effectively inhibit the formation of premalignant lesions
- effect at doses higher than the recommended therapeutic levels [4]: elevated levels of liver enzymes

Compound: CC1(C)C(=O)Nc2ccc(C3=NNC(=O)CC3)cc21 [Indolidan]
- inhibition / sensitivity of the new cGMP-PDE (peak B), in words [2]: relatively insensitive

Compound: COc1ccc(C2CNC(=O)C2)cc1OC1CCCC1 (stereo not drawn) [Rolipram]
- inhibition / sensitivity of the new cGMP-PDE (peak B), in words [2]: relatively insensitive
- effect on levels of cAMP, in words [5]: increased cAMP levels

Compound: CCCc1nn(C)c2c(=O)[nH]c(-c3cc(S(=O)(=O)N4CCN(C)CC4)ccc3OCC)nc12 [Sildenafil]
- inhibition of peak A (PDE5), in words (PDE peak A (PDE5)): inhibited activity of peak A
- inhibition / sensitivity of the new cGMP-PDE (peak B), in words [2]: relatively insensitive

Compound: CSc1ccc(/C=C2/C(C)=C(CC(=O)O)c3cc(F)ccc32)cc1 [Sulindac sulfide]
- inhibition of peak A (PDE5), in words (PDE peak A (PDE5)): competitively inhibit
- inhibition / sensitivity of the new cGMP-PDE (peak B), in words [2]: competitively inhibit
- % Inhibition at 10 μM (cGMP PDE) (cGMP-PDE): 97%
- increase of the levels of cGMP [6]: greater than 50%
- effect on levels of cAMP, in words [5]: unaffected
- growth inhibition by counting viable cells after trypan blue staining, in words ([1]; 120 μM, time course): capable of inhibiting tumor cell growth
- apoptosis by morphological determination, in words (HT-29 cells; 120 μM, time course): increase in apoptosis
- apoptotic and necrotic cell death, in words (HT-29 cells): capable of causing apoptotic cell death without inducing necrosis
- inhibition of premalignant lesions in mammary gland organ culture, in words [3]: inactive

Compound: CCOC(=O)C1=C[C@]2(CC)CCCN3CCc4c(n1c1ccccc41)[C@@H]32 [Vinpocetine]
- inhibition / sensitivity of the new cGMP-PDE (peak B), in words [2]: relatively insensitive

Compound: CCCOc1ccccc1-c1nc2nn[nH]c2c(=O)[nH]1 [Zaprinast]
- inhibition / sensitivity of the new cGMP-PDE (peak B), in words [2]: relatively insensitive

Compound: CC1=C(CC(=O)O)c2cc(F)ccc2/C1=C/c1ccc([S+](C)[O-])cc1 (stereo not drawn) [sulindac sulfoxide]
- inhibition of premalignant lesions in mammary gland organ culture, in words [3]: effectively inhibit the formation of premalignant lesions
